Results as given in patent US20080146524A1, “Selective inhibitors of neurotensin degrading enzymes” (Solvay Pharmaceuticals B.V., priority 2006, published 2008).
Residues, ends and D or L forms follow the SMILES beside them.

Legend:
Neurolysine EC 3.4.24.16 = Neurolysine EC 3.4.24.16 (UniProt P42676); format: biochemical
[1] = target: Thimet oligopeptidase EC 3.4.24.15 (UniProt P24155); assay: enzyme inhibition of Thimet oligopeptidase EC 3.4.24.15 (published methods, Dauch 1991a,b); format: biochemical
[2] = determination of chemical stability, storage in glass vials, LC-MS; format: physicochemical; settings: for relative stability: stored in glass vials, LC-MS; for stability on storage (in words): over 10 days (240 hr)
Experimental: Compound 36 and its phosphinamide analog phosphodiepril (FR 2 654 430, synthesized as disclosed therein) were stored separately in glass vials. At different time intervals samples were taken and analyzed by LC-MS. Samples were dissolved in DMSO (0.1 mg/ml) and diluted by a factor 100 in the first LC eluent (A). At fixed time points an amount of 100 μl was taken from the formulations. These time points were 0, 3, 72, and 240 hours. All samples were measured in the positive mode, with an ESI source on the LC-MS.
Eluents were composed of water (H2O), acetonitril (ACN), methanol (MeOH) and ammonium-acetate (NH4Ac). The eluent is mixed out of two different bottles with two different compositions. • Eluent A consists of H2O/ACN/MeOH 800/100/100+0.77 g/l NH4Ac. • Eluent B consists of H2O/ACN/MeOH 100/800/100+0.77 g/l NH4Ac.
The gradient in the pump was set to:
Columns: Chromsep Guard Column SS 10×2 mm (CP28141) and Inertsil 5 ODS-3 100×3.0 mm (CP22234). Column temperature: 25° C.
Injection: well plate temperature: 25° C. • Injection volume: 20 μl • Splitter (post column): 1:4 • Run time: 9.50 minutes.
Detection MS-MS:ESI (pos/neg) spray 3.0 kV • Fragmentor 70 • Gain 2.0 • Dwell 700 msec • Nebulizer pressure 42 psig • Drying gas temperature 325° C. • Capillary temperature 325° C.
Compound 36 and its phosphinamide analog phosphodiepril (FR 2 654 430, synthesized as disclosed therein) were stored separately in glass vials. At different time intervals samples were taken and analyzed by LC-MS.
When calculating the relative stability it was assumed that the compounds were completely dissolved during formulation. Therefore, the relative stability is 100% at the beginning (0 hour measurement). The following time measurements are recalculated from that measurement.

[3] = in vivo experiments with phosphodiepril
From the text: Thus, even in its pure form, the N-analog is not stable. Due to the rapid hydrolysis of the phosphonamide bond, enzyme inhibition activity of this compound can only be determined with difficulty.

[4] = test system: Corynebacterium rathayii collagenase; settings: cited from earlier work
endopeptidase 24.15 = endopeptidase 24.15 (Rattus norvegicus, UniProt P24155); settings: at concentrations as high as 5 mM; cited from earlier work
endopeptidase 24.16 = endopeptidase 24.16 (Rattus norvegicus, UniProt P42676); settings: cited from earlier work
[5] = Time 0 hr (set to 100% at the beginning)
[6] = Time 240 hr, relative to 0 hour

Sequence of endopeptidase 24.15 (P24155 whole entry): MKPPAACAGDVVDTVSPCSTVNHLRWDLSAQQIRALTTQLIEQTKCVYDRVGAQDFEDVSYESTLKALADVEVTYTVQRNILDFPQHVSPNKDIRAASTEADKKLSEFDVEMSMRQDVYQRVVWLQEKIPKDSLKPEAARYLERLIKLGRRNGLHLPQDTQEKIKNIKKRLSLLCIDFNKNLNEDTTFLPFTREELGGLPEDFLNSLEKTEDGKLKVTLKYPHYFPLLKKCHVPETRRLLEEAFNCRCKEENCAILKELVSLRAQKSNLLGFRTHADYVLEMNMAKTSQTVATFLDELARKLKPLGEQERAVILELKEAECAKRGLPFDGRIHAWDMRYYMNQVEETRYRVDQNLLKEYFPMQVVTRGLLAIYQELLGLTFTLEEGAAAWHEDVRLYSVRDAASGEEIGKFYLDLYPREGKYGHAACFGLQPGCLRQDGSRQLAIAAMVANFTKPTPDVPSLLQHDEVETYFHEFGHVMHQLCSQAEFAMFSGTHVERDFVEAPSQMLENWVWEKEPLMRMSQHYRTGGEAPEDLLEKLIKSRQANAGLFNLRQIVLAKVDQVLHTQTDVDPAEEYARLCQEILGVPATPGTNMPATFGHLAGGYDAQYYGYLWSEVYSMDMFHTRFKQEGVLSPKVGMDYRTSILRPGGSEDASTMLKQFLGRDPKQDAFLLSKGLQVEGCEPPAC
Sequence of endopeptidase 24.16 (P42676 38-704): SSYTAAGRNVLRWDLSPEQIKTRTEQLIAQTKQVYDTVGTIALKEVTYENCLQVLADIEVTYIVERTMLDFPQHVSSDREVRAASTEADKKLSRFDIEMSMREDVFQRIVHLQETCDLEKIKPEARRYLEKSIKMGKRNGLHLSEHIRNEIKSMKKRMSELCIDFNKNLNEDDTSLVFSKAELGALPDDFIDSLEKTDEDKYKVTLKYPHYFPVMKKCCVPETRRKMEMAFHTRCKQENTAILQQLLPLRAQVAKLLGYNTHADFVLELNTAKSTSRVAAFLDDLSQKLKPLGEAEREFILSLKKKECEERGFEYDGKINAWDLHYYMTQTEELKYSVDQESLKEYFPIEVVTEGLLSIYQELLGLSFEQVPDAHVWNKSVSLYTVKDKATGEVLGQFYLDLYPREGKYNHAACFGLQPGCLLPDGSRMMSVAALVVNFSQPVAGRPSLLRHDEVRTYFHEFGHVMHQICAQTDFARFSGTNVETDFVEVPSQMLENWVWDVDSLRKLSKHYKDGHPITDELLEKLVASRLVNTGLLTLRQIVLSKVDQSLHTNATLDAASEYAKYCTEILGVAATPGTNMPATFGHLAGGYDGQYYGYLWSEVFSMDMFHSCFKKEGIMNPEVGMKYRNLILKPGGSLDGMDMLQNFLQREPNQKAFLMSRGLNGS

| SMILES | enzyme inhibition EC 3.4.24.16 pIC50 (Neurolysine EC 3.4.24.16) | enzyme inhibition EC 3.4.24.15 pIC50 [1] | also measured |
| --- | --- | --- | --- |
| CCC(NC(=O)C(Cc1ccccc1)NC(=O)CCP(=O)(O)Cc1ccc2ccccc2c1)C(=O)O (stereo not drawn) [Compound 25] | 5.9 | 5.7 | – |
| CCC(C)C(NC(=O)CCP(=O)(O)CCc1cccc2ccccc12)C(=O)NC(CC(C)C)C(=O)O (stereo not drawn) [Compound 30] | 5.2 | 5.8 | – |
| CCC(C)C(NC(=O)CCP(=O)(O)CCc1ccc2ccccc2c1)C(=O)NC(CC(C)C)C(=O)O (stereo not drawn) [Compound 29] | 6.6 | 7.0 | – |
| CCCCC(NC(=O)C(NC(=O)CCP(=O)(O)CCc1cccc2ccccc12)C(C)C)C(=O)O (stereo not drawn) [Compound 26] | 6.3 | 6.5 | – |
| CCC(C)C(NC(=O)CCP(=O)(O)CCc1cccc2ccccc12)C(=O)NC(C(=O)O)C(C)C (stereo not drawn) [Compound 28] | 5.8 | 6.3 | – |
| CCCCC(NC(=O)C(C)N(C)C(=O)CCP(=O)(O)CCCCc1ccccc1)C(=O)O (stereo not drawn) [Compound 11] | 6.1 | 6.2 | – |
| CC(C)C(NC(=O)CCP(=O)(O)CCc1cccc2ccccc12)C(=O)NC(Cc1ccccc1)C(=O)O (stereo not drawn) [Compound 27] | 6.1 | 6.2 | – |
| CCCCC(NC(=O)C(NC(=O)CCP(=O)(O)CCCCc1ccccc1)C(C)C)C(=O)O (stereo not drawn) [Compound 6] | 6.7 | 6.8 | – |
| CCC(C)C(NC(=O)CCP(=O)(O)CCCCc1ccccc1)C(=O)NC(CC(C)C)C(=O)O (stereo not drawn) [Compound 9] | 5.6 | 6.3 | – |
| CCCC[C@H](NC(=O)[C@@H]1CCCN1C(=O)CCP(=O)(O)CCc1ccc2ccccc2c1)C(=O)O [Compound 36] | >7.5 | 8.9 | relative stability [2, 5]: 100%; relative stability ([2]; Time 3 hr, relative to 0 hour): 101%; relative stability ([2]; Time 72 hr, relative to 0 hour): 103%; relative stability [2, 6]: 100%; stability on storage (in words) [2]: remained stable |
| CCC(C)C(NC(=O)CCP(=O)(O)CCCCc1ccccc1)C(=O)NC(C(=O)O)C(C)C (stereo not drawn) [Compound 8] | 5.4 | 5.8 | – |
| CCCC[C@H](NC(=O)[C@@H]1CCCN1C(=O)CNP(=O)(O)CCc1ccc2ccccc2c1)C(=O)O [phosphodiepril, reference compound] | – | – | outcome of in vivo experiments [3]: negative results; relative stability [2, 5]: 100%; relative stability ([2]; Time 3 hr, relative to 0 hour): 92%; relative stability ([2]; Time 72 hr, relative to 0 hour): 87%; relative stability [2, 6]: 82%; stability on storage (in words) [2]: gradually degraded |
| CCCC[C@H](NC(=O)[C@@H]1CCCN1C(=O)CCP(=O)(O)CCc1ccccc1)C(=O)O [N-[1-[3-[hydroxyl-(2-phenyl-ethyl)phosphinyl]1-oxopropyl]-L-prolyl]-L-norleucine] | – | – | inhibition of Corynebacterium rathayii collagenase [4]: potent inhibitor |
| CC[C@H](C)[C@H](NC(=O)[C@@H]1CCCN1)C(=O)O [Pro-IIe] (H-Pro-Ile-OH) | – | – | inhibition of endopeptidase 24.15 (endopeptidase 24.15): does not inhibit; Ki (endopeptidase 24.16): 90 µM |
| CC(C)C(NC(=O)CCP(=O)(O)CCCCc1ccccc1)C(=O)NC(Cc1ccccc1)C(=O)O (stereo not drawn) [Compound 7] | 6.1 | 6.2 | – |
| CCCCC(NC(=O)C(C)N(C)C(=O)CCP(=O)(O)CCc1ccc2ccccc2c1)C(=O)O (stereo not drawn) [Compound 32] | – | 7.0 | – |
